# Like-named read-outs stand apart in the source and are kept apart here.
# How the values were obtained:
# [1] = system: PPARdelta/PPARalpha; settings: two weeks clinical trials, healthy volunteers; cited from earlier work
# [2] = system: PPARdelta/PPARalpha; settings: rhesus and cynomolgus monkeys; cited from earlier work
# [3] = biological target: T1, human PPARalpha (Homo sapiens, UniProt Q07869); experiment: cellular PPARalpha assay (luciferase reporter, stably transfected HEK cell line); format: cell-based
# T1 construct: amino acids S167-Y468; expressed in transfected cells
# T1 sequence (Q07869 167-468): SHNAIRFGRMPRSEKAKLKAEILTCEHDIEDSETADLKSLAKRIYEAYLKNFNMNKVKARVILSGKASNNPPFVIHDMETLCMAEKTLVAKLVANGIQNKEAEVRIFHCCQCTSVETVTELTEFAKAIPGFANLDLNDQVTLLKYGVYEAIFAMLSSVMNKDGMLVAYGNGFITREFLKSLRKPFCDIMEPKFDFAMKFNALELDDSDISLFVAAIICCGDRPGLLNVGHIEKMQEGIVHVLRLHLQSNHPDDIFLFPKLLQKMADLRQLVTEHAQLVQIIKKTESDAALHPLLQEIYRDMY
# Experimental: (§1) The potency of substances which bind to human PPARalpha and activate it in an agonistic manner is analyzed using a stably transfected HEK cell line (HEK=human embryo kidney) which is referred to here as PPARalpha reporter cell line. It contains two genetic elements, a luciferase reporter element (pdeltaM-GAL4-Luc-Zeo) and a PPARalpha fusion protein (GR-GAL4-humanPPARalpha-LBD) which mediates expression of the luciferase reporter element depending on a PPARalpha ligand. The stably and constitutively expressed fusion protein GR-GAL4-humanPPARalpha-LBD binds in the cell nucleus of the PPARalpha reporter cell line via the GAL4 protein portion to the GAL4 DNA binding motifs 5′-upstream of the luciferase reporter element which is stably integrated in the genome of the cell line. There is only weak expression of the luciferase reporter gene in the absence of a PPARalpha ligand if fatty acid-depleted fetal calf serum (cs-FCS) is used in the assay. PPARalpha ligands bind and activate the PPARalpha fusion protein and thereby stimulate the expression of the luciferase reporter gene. The luciferase which is formed can be detected by means of chemiluminescence via an appropriate substrate.
# The PPARalpha reporter cell line was prepared in two stages. Firstly, the luciferase reporter element was constructed and stably transfected into HEK cells. For this purpose, five binding sites of the yeast transcription factor GAL4 (Accession # AF264724) were cloned in 5′-upstream of a 68 bp-long minimal MMTV promoter (Accession # V01175). The minimal MMTV promoter section contains a CCAAT box and a TATA element in order to enable efficient transcription by RNA polymerase II. The cloning and sequencing of the GAL4-MMTV construct took place in analogy to the description of Sambrook J. et. al. (Molecular cloning, Cold Spring Harbor Laboratory Press, 1989). Then the complete Photinus pyralis gene (Accession # M15077) was cloned in 3′-downstream of the GAL4-MMTV element. After sequencing, the luciferase reporter element consisting of five GAL4 binding sites, MMTV promoter and luciferase gene was recloned into a plasmid which confers zeocin resistance in order to obtain the plasmid pdeltaM-GAL4-Luc-Zeo. This vector was transfected into HEK cells in accordance with the statements in Ausubel, F. M. et al. (Current protocols in molecular biology, Vol. 1-3, John Wiley & Sons, Inc., 1995).
# In a second step, the PPARalpha fusion protein (GR-GAL4-humanPPARalpha-LBD was introduced into the stable cell clone described. For this purpose, initially the cDNA coding for the N-terminal 76 amino acids of the glucocorticoid receptor (Accession # P04150) was linked to the cDNA section coding for amino acids 1-147 of the yeast transcription factor GAL4 (Accession # P04386). The cDNA of the ligand-binding domain of the human PPARalpha receptor (amino acids S167-Y468; Accession # S74349) was cloned in at the 3′-end of this GR-GAL4 construct. The fusion construct prepared in this way (GR-GAL4-humanPPARalpha-LBD) was recloned into the plasmid pcDNA3 (Invitrogen) in order to enable constitutive expression therein by the cytomegalovirus promoter. This plasmid was linearized with a restriction endonuclease and stably transfected into the previously described cell clone containing the luciferase reporter element. The finished PPARalpha reporter cell line which contains a luciferase reporter element and constitutively expresses the PPARalpha fusion protein (GR-GAL4-human PPARalpha-LBD) was isolated by selection with zeocin (0.5 mg/ml) and G418 (0.5 mg/ml).
# The activity of PPARalpha agonists is determined in a 3-day assay which is described below: […]
# [4] = biological target: T2, human PPARdelta (Homo sapiens, UniProt Q03181); experiment: cellular PPARdelta assay (luciferase reporter, stably transfected HEK cell line); format: cell-based; settings: GR-GAL4-humanPPARdelta-LBD
# T2 construct: amino acids S139-Y441; expressed in transfected cells
# T2 sequence (Q03181 139-441): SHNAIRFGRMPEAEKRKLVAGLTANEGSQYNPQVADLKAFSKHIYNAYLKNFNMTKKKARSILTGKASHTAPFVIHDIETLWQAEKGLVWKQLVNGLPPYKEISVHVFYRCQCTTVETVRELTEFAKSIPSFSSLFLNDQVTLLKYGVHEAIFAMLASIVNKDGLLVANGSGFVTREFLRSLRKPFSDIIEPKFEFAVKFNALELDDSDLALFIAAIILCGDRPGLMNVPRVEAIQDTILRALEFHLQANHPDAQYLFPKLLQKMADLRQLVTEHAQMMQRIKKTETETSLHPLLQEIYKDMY
# Experimental: as §1, with “PPARdelta” for “PPARalpha”, “In analogy to the assay described for PPARalpha, the PPARdelta reporter cell line also” for “It”, “(GR-GAL4-humanPPARdelta-LBD)” for “(GR-GAL4-humanPPARalpha-LBD)”, “GR-GAL4-humanPPARdelta-LBD” for “GR-GAL4-humanPPARalpha-LBD”, “little” for “weak”, “stimulate” for “stimulate the”
# The production of the stable PPARdelta reporter cell line is based on a stable HEK-cell clone which was stably transfected with a luciferase reporter element. This step was already described above in the section “construction of the PPARalpha reporter cell line”. […]
# The activity of PPARdelta agonists is determined in a 3-day assay in exact analogy to the procedure already described for the PPARalpha reporter cell line except that the PPARdelta reporter cell line and a specific PPARdelta agonist was used as a standard to control test efficacy.
# [5] = system: PPARdelta; settings: diabetic animal model; cited from earlier work
# [6] = biological target: T3, PPARdelta (Macaca mulatta, UniProt I0FFS1); settings: obese, insulin resistant rhesus monkeys; cited from earlier work
# T3 sequence (I0FFS1 1-441): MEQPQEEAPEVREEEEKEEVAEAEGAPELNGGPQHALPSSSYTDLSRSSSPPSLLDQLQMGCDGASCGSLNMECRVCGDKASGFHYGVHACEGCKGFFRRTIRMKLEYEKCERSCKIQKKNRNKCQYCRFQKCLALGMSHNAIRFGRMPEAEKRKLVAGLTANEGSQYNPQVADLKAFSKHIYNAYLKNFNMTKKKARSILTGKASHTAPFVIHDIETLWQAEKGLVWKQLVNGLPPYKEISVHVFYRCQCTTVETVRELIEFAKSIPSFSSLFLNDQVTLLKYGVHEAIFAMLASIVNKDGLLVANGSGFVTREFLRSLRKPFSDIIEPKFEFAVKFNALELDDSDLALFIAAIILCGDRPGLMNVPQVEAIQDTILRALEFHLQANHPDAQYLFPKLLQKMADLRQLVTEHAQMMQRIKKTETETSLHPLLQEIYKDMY
# [7] = read-out: PPARalpha EC50 values (range given)
# [8] = GR-GAL4-humanPPARalpha-LBD, read-out: PPARalpha EC50
SMILES,"EC50 [3, 7] [nM]",EC50 [4] [nM],"EC50 [3, 8] [nM]",also measured
CCCc1c(OCCCSc2nnc(SCC(=O)O)s2)ccc(C(C)=O)c1O [YM-16638],,,,plasma lipids [1]: acts in a similar manner; plasma lipids [2]: significantly lowers
"CC1(C)CN(S(=O)(=O)c2ccc(-c3nc(=O)o[nH]3)c(Cl)c2)c2ccc(-c3ccc(C(F)(F)F)cc3)cc21 [Example 4, 3-{2-Chloro-4-[3,3-dimethyl-5-(4-trifluoromethyl-phenyl)-2,3-dihydro-indole-1-sulfonyl]-phenyl}-2H-[1,2,4]oxadiazol-5-one]",1000 to 5000,,,
"O=c1[nH]c(-c2ccc(S(=O)(=O)N3CCc4cc(-c5ccc(C(F)(F)F)cc5)ccc43)cc2)no1 [Example 1, 3-{4-[5-(4-Trifluoromethyl-phenyl)-2,3-dihydro-indole-1-sulfonyl]-phenyl}-4H-[1,2,4]oxadiazol-5-one]",1000 to 5000,,,
"O=c1[nH]c(-c2ccc(S(=O)(=O)N3CCc4cc(-c5ccc(C(F)(F)F)cc5)ccc43)cc2Cl)no1 [Example 3, 3-{2-Chloro-4-[5-(4-trifluoromethyl-phenyl)-2,3-dihydro-indole-1-sulfonyl]-phenyl}-4H-[1,2,4]oxadiazol-5-one]",1000 to 5000,3,1110,
CCCc1c(OCCCOc2ccc(OCC(=O)O)cc2)ccc(C(C)=O)c1O [Example L-165041],,,,plasma cholesterol [5]: raises
Cc1cc(SCc2sc(-c3ccc(C(F)(F)F)cc3)nc2C)ccc1OCC(=O)O [GW501516],,,,HDL-cholesterol [6]: raises; insulin levels [6]: decreases; plasma LDL-cholesterol [6]: decreases; triglycerides [6]: decreases
"O=c1nc(-c2ccc(S(=O)(=O)N3CCc4ccc(-c5ccc(C(F)(F)F)cc5)cc4C3)cc2Cl)[nH]o1 [Example 5, 3-{2-Chloro-4-[7-(4-trifluoromethyl-phenyl)-3,4-dihydro-1H-isoquinoline-2-sulfonyl]-phenyl}-2H-[1,2,4]oxadiazol-5-one]",1000 to 5000,35,1640,
"CC1(C)CN(S(=O)(=O)c2ccc(-c3nc(=O)o[nH]3)cc2)c2ccc(-c3ccc(C(F)(F)F)cc3)cc21 [Example 2, 3-{4-[3,3-Dimethyl-5-(4-trifluoromethyl-phenyl)-2,3-dihydro-indole-1-sulfonyl]-phenyl}-2H-[1,2,4]oxadiazol-5-one]",1000 to 5000,15,3520,

# Reference: patent publication US8173674B2, “Sulfonyl-phenyl-2H-[1,2,4]oxadiazol-5-one derivatives, processes for their preparation and their use as pharmaceuticals” (Sanofi-Aventis, priority 2006, dated 2012)
